Results taken from patent US20030124718A1, “Vaccine composition” (priority 2001, published 2003).

Assays:
[1] = tested on: SIV gag recombinant protein; experiment: Proliferation analysis of PBMC; format: in vivo, rhesus macaques; conditions: proliferative responses to SIV gag
Experimental: At each time point PBMC were isolated from whole blood by density gradient centrifugation over Ficoll-Hypaque and resuspended in complete RPMI media containing 10% human serum (R10 medium). In 96-well flat bottom plates, 2×10^5 PBMC/well were incubated for 6 days with 0.2 μg/well protein in R10 media. PBMC were stimulated 10 μg/ml of SIV gag recombinant protein (Intracel). Sixteen hours before the end of the assay, each well was pulsed with 1 μCi ^3H-thymidine. Cells were harvested and the isotope incorporation measured by scintillation spectroscopy. All assays were performed in triplicates.
Proliferative responses to SIV gag were measured during combined PMPA+DNA vaccine therapy (weeks 0-28) and after discontinuation of therapy (weeks 30-46 to date).

SIV/DeltaB670 = experiment: Plasma viral loads (real time PCR) after SIV challenge, PMPA + DNA vaccine immunotherapy
[2] = tested on: SIV-specific CD8+ T cell responses; experiment: IFNγ ELISPOT of epitope-specific CD8+ T cell responses in DNA-immunized / SIV-infected macaques; format: in vivo, rhesus macaques; conditions: for Epitope-specific responses, Group A monkeys, 2 weeks post-SIV infection / Epitope-specific responses, Group A monkeys, Post-immunization, Pre-infection / Epitope-specific responses, Group C monkeys, 2 weeks post-SIV infection: ELISPOT; for Epitope-specific responses, Group A monkeys, 2 weeks post-SIV infection / Epitope-specific responses, Group A monkeys, Post-immunization, Pre-infection: Mamu-A*01 positive macaques immunized before and after infection; for Epitope-specific responses, Group A monkeys, Post-immunization, Pre-infection: after DNA immunization, before SIV infection; for Epitope-specific responses, Group C monkeys, 2 weeks post-SIV infection: Mamu-A*01 positive macaques immunized only after infection; for CD8+ T cell response against peptide after DNA immunization: Group A monkeys, ELISPOT after 1st-4th DNA immunization
Experimental: Each monkey received a total of 4 immunizations consisting of 32.0 μg DNA (3.2 μg of each DNA vector) per immunization spaced 4-8 weeks apart. The epitope specificity of the CD8+ T cell responses was determined by ELISPOT following the 1st, 2nd, 3rd or 4th DNA immunization.
ELISPOTs were performed essentially as described (Roy et al. 2000). Briefly, antibody pairs against rhesus monkey IFNγ (Cytech-BV, Amsterdam, The Netherlands) were used to measure the number of r cells that secrete IFNγ. PBMC were cultured at 2 different dilutions in 96 well nitrocellulose filter plates (Millipore) previously coated with anti-cytokine mAbs. ^2 μg/ml of the appropriate MamuA*01 CTL peptide or pepset (Chiron) was then added.
CD8+ T cell responses were measured by ELISPOT. In A*01 positive monkeys, the average cumulative ELISPOT was determined at each timepoint by measuring responses following stimulation with 10 representative epitopes included in the vaccine. In A*01 negative monkeys, cumulative ELISPOT values were determined using gag and tat peptide pools.

[3] = Table 1 characteristics, from references; cited from earlier work
MHC = conditions: Table 1 characteristics, from references; cited from earlier work

Compound	Epitope-specific responses, Group A monkeys, 2 weeks post-SIV infection [2]	Epitope-specific responses, Group A monkeys, Post-immunization, Pre-infection [2]	Epitope-specific responses, Group C monkeys, 2 weeks post-SIV infection [2]	CD8+ T cell response against peptide after DNA immunization [2]	immunogenicity [3]	other results
C[C@H](Cn1cnc2c(N)ncnc21)OCP(=O)(O)O [Group E]	–	–	–	–	–	Average Stimulation Index +/− SE post-therapy (wks 30-46) ([1]; after discontinuing therapy, weeks 30-46): 1.4 +/− 0.2; Average Stimulation Index +/− SE during therapy (wks 0-28) ([1]; combined PMPA + DNA vaccine therapy, weeks 0-28): 1.8 +/− 0.5; Geometric mean virus loads during therapy with DNA vaccines + PMPA (weeks 5-28) (SIV/DeltaB670; weeks 5-28, during therapy): 7,192 no. of copies of viral RNA/ml plasma; Immunotherapeutic efficacy: number of monkeys maintaining virus loads at < 5000 viral RNA copies/ml plasma, during therapy (weeks 5-28) (SIV/DeltaB670; weeks 5-28, during therapy with DNA vaccines + PMPA): 4/8; Geometric mean virus loads after discontinuation of drug and vaccine therapy (weeks 30-46) (SIV/DeltaB670; weeks 30-46, after discontinuation): 38,428 no. of copies of viral RNA/ml plasma; Immunotherapeutic efficacy: number of monkeys maintaining virus loads at < 5000 viral RNA copies/ml plasma, after discontinuation (weeks 30-46) (SIV/DeltaB670; weeks 30-46, after discontinuation of drug and vaccine therapy): 1/8
CAPPGYALL [Env235-243CL9]	+/+ (A + response = a minimum of 25 spot forming cells/1 × 10^6 PBMC was detected in at least 1 of the 8 monkeys per group)	+/+ (A + response = a minimum of 25 spot forming cells/1 × 10^6 PBMC was detected in at least 1 of the 8 monkeys per group)	NA/+ (A + response = a minimum of 25 spot forming cells/1 × 10^6 PBMC was detected in at least 1 of the 8 monkeys per group)	Significant responses	–	–
CTPYDINQM [Gag181-189CM9]	+/+ (A + response = a minimum of 25 spot forming cells/1 × 10^6 PBMC was detected in at least 1 of the 8 monkeys per group)	+/+ (A + response = a minimum of 25 spot forming cells/1 × 10^6 PBMC was detected in at least 1 of the 8 monkeys per group)	NA/+ (A + response = a minimum of 25 spot forming cells/1 × 10^6 PBMC was detected in at least 1 of the 8 monkeys per group)	Significant responses	–	–
FRKQNPDIVIYQYMDDLYVG	–	–	–	–	epitope, strong	–
GSPAIFQYTM [Pol359-365GM10]	+/+ (A + response = a minimum of 25 spot forming cells/1 × 10^6 PBMC was detected in at least 1 of the 8 monkeys per group)	+/+ (A + response = a minimum of 25 spot forming cells/1 × 10^6 PBMC was detected in at least 1 of the 8 monkeys per group)	–	Significant responses	–	–
ILKEPVHGVY	–	–	–	–	MHC, strong	binding affinity to MHC (MHC): CTL epitope, high
LAPVPIPFA [Gag372-380LA9]	+/+ (A + response = a minimum of 25 spot forming cells/1 × 10^6 PBMC was detected in at least 1 of the 8 monkeys per group)	+/+ (A + response = a minimum of 25 spot forming cells/1 × 10^6 PBMC was detected in at least 1 of the 8 monkeys per group)	–	Significant responses	–	–
LLWKGEGAV	–	–	–	–	MHC, strong	binding affinity to MHC (MHC): CTL epitope, high
QVPSLQYLA [Vifl44-152QA9]	+/+ (A + response = a minimum of 25 spot forming cells/1 × 10^6 PBMC was detected in at least 1 of the 8 monkeys per group)	+/+ (A + response = a minimum of 25 spot forming cells/1 × 10^6 PBMC was detected in at least 1 of the 8 monkeys per group)	NA/+ (A + response = a minimum of 25 spot forming cells/1 × 10^6 PBMC was detected in at least 1 of the 8 monkeys per group)	Significant responses	–	–
RIQRGPGRAFVTIGK	–	–	–	–	epitopes, highly	–
STPESANL [Tat28-35SL8]	+/+ (A + response = a minimum of 25 spot forming cells/1 × 10^6 PBMC was detected in at least 1 of the 8 monkeys per group)	+/+ (A + response = a minimum of 25 spot forming cells/1 × 10^6 PBMC was detected in at least 1 of the 8 monkeys per group)	NA/+ (A + response = a minimum of 25 spot forming cells/1 × 10^6 PBMC was detected in at least 1 of the 8 monkeys per group)	Significant responses	–	–
TVPWPNASL [Env622-630TL9]	+/+ (A + response = a minimum of 25 spot forming cells/1 × 10^6 PBMC was detected in at least 1 of the 8 monkeys per group)	+/+ (A + response = a minimum of 25 spot forming cells/1 × 10^6 PBMC was detected in at least 1 of the 8 monkeys per group)	–	Significant responses	–	–
